From publication PMC3590912 (Journal of medicinal chemistry, 2012) come the findings set out here.

Data set [1] is described as follows: In vitro metabolic stability in hepatic microsomes with NADPH. Conditions: for in vitro metabolic stability (in words): hepatic microsomes with NADPH, compared with 1.
The nature of data set [2]: Pharmacokinetics and renal accumulation in mice. The following applies: intraperitoneal bolus 400 μg, for many hours.
A further data set concerns mice. As to the kind of experiment: Urearetic activity: urine osmolality in mice under dDAVP stimulation. The data set is classed as in vivo, mouse. The following applies: 400 μg intraperitoneal, dDAVP 1 h later, versus formulation alone.

With `O=S(=O)(c1ccc(C(F)(F)F)cc1)c1nnn2c1nc(NCc1cccs1)c1sccc12` [3c, Thiophen-2-ylmethyl-[3-(4-trifluoromethylbenzenesulfonyl)thieno[2,3-e][1,2,3]triazolo[1,5-a]pyrimidin-5-yl]amine], the “in vitro metabolic stability (in words)” value in data set [1] is listed as “improved metabolic stability”.
Regarding `O=S(=O)(c1ccc(OC(F)(F)F)cc1)c1nnn2c1nc(NCc1cccs1)c1sccc12` [3d, Thiophen-2-ylmethyl-[3-(4-trifluoromethoxybenzenesulfonyl)thieno[2,3-e][1,2,3]triazolo-[1,5-a]pyrimidin-5-yl]amine], the “in vitro metabolic stability (in words)” value in data set [1] is “improved metabolic stability”.
For the molecule `O=S(=O)(c1ccc(Br)cc1)c1nnn2c1nc(NCc1cccs1)c1sccc12` [3i, [3-(4-Bromobenzenesulfonyl)thieno[2,3-e][1,2,3]triazolo-[1,5-a]pyrimidin-5-yl]thiophen-2-ylmethylamine], in data set [1], the “in vitro metabolic stability (in words)” value is “improved metabolic stability”.
As to `CC(F)(F)c1ccc(S(=O)(=O)c2nnn3c2nc(NCc2cccs2)c2sccc23)cc1` [3k, [3-[4-(1,1-Difluoroethyl)benzenesulfonyl]thieno[2,3-e]-[1,2,3]triazolo[1,5-a]pyrimidin-5-yl]thiophen-2-ylmethylamine], the “improvement of in vitro metabolic stability compared to 1” value in data set [1] was ~ 40 fold. The “3k concentration in blood, kidney and urine” value in data set [2] is above 1 µM. The “reduction of urine osmolality” value with mice is recorded as ~ 0.5 Osm/kg H2O.
